Measured values taken from paper PMC7055211 (Scientific Reports, 2020).
“Also recorded” adds a separate entry of the source. Where two headings read alike, the source gives them in different places.

Experiments:
[1] = WST-1 cellular metabolism measurement for the five prazoles (CC50); assay type: cell-based; settings: human, 293 T cells, 50% metabolic activity of control, WST reagent, read-out: Cytotoxicity (CC50)
[2] = Prazole degradation rate: prodrug remaining in pH 5.8 buffer by 1D proton NMR; settings: for prodrug remaining at 17 hours: 1D proton NMR
HIV-1 = assay: microbe, parasite or virus in culture; assay type: cell-based; settings: for EC50: Human immunodeficiency virus 1, HEK-293T
in vitro [3] = settings: human
HIV-1 Gag-HA VLP = assay type: cell-based
Tsg101 UEV domain = biological target: T1, Tsg101 UEV domain (Homo sapiens, UniProt Q99816); assay: NMR chemical shift perturbations of Tsg101 UEV domain complexed with prazoles; assay type: binding; settings: 15N-Tsg101 UEV, pH 5.8, 300 K
T1 construct: purified ^15N-labeled Tsg101 UEV domain protein complexed to various prazoles; made in house
T1 sequence (Q99816 2-145 limits assumed): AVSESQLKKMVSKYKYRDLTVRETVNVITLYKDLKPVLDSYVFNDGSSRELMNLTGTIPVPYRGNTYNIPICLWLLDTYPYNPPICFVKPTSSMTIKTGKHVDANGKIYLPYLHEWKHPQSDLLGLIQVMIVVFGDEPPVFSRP

ZIKV PRVABC59 = assay type: cell-based, Zika virus
DENV 2 strain 16681 = assay type: cell-based, Dengue virus type 2
EBOV (Zaire) = assay: microbe, parasite or virus in culture; assay type: cell-based, Ebola virus
in vitro [4] = settings: human; remark: listed apart in the source
in vitro [5] = settings: human; remark: listed apart in the source
CLIX-FZ cells = assay: WST-1 metabolic activity of CLIX-FZ cells; assay type: cell-based; settings: 40 μM concentration range, WST-1, 24 hr
Procedure: Figure 4 EBV replication is tenatoprazole-sensitive. Latent EBV was reactivated in CLIX-FZ cells by addition of doxycycline in the presence of DMSO (black bars) or DMSO plus tenatoprazole (20 µM or 40 µM, grey bars); non-treated cells are shown as white bars. After 72 hr, cells and conditioned media were harvested. Panel A, extracellular EBV DNA measured in pellet fraction of conditioned media. Panel B, intracellular EBV DNA measured in lysed cells. EBV DNA was determined by quantitative-PCR (qPCR) for the EBV BALF5 gene. EBV DNA copy number from each preparation was normalized to the DMSO-treated control. Panel C, metabolic activity of cells in the presence of tenatoprazole. The cells were grown for 24 hr in media containing the indicated concentrations of doxycycline and tenatoprazole followed by assessment of metabolic activity assessed using the WST-1 assay. Panel D, fractionation of intracellular DNA. […] DNA was extracted from each fraction and the relative number of EBV genomes from each fraction was determined by qPCR using primers directed towards the EBV BALF5 gene. […]
Metabolic activity of the cells in the presence of the prazole drugs for 24 hr was assessed using the WST-1 assay (Roche Applied Science) following the manufacturer's protocol.

[6] = tested on: Mahoney strain of poliovirus; assay type: cell-based, Poliovirus Type I Mahoney; settings: 293 T cells, up to 100 μM, plaque assay
[7] = tested on: HIV-1 P7L-Gag (disrupted PTAP motif); assay type: cell-based
EBV = assay type: cell-based, Epstein Barr virus; settings: CLIX-FZ; for Virus Production (resistant or susceptible), EBV: BALF5
MAYV TRVL 15537 = assay type: cell-based, Mayaro virus
[8] = tested on: pseudotyped virus using the EBOV Env (G) protein; settings: cited from earlier work
[9] = read-out: Approximate Effective Concentration (EC50)
[10] = read-out: EC50, inhibition of HIV-1 production
[11] = doxycycline, 20 µM and 40 μM, 72 hr, qPCR

COc1ccnc(C[S+]([O-])c2nc3ccc(OC(F)F)cc3[nH]2)c1OC (stereo not shown) [Pantoprazole, pantoprazole sodium hydrate]
CC50 at 24 h [1]: 40 µM | prodrug remaining at 17 hours ([2]; 2 mM prazole, 300 K): 96% | inhibition of HIV-1 production (in words) (HIV-1): negligible inhibitory activity | Selectivity Index (CC50/EC50) (HIV-1; HIV-1, Table 3): <0.5 | EC50 (HIV-1; [9]): > 75 µM

Cc1c(OCC(F)(F)F)ccnc1C[S@@+]([O-])c1nc2ccccc2[nH]1 [dexlansoprazole]
conversion rate, dexlansoprazole compared with lansoprazole ([2]; Supplemental Fig. 3A): no significant difference in rates

COCCCOc1ccnc(C[S+]([O-])c2nc3ccccc3[nH]2)c1C (stereo not shown) [Rabeprazole, rabeprazole sodium]
CC50 at 24 h [1]: 150 µM | time course of prodrug disappearance ([2]; 2 mM prazole, 300 K): completely disappearing in less than ten hours | inhibition of HIV-1 production (in words) (HIV-1): strongest inhibitory effect | Selectivity Index (CC50/EC50) (HIV-1; HIV-1, Table 3): 10 | EC50 (HIV-1; [9]): 15 µM | EC50 (HIV-1; [10]): ~15 µM

COc1ccc2[nH]c([S+]([O-])Cc3ncc(C)c(OC)c3C)nc2n1 (stereo not shown) [Tenatoprazole, tenatoprazole]
CC50 (in vitro [3]): 123 µM | Gag accumulation in cell lysate (HIV-1 Gag-HA VLP): drug concentration-dependent decline in Gag accumulation | VLP production (HIV-1 Gag-HA VLP): dose-dependent inhibition of VLP production | VLP release efficiency (HIV-1 Gag-HA VLP): no change | CC50 at 24 h [1]: 125 µM | chemical shift change of backbone amide of S41 (Tsg101 UEV domain): 0.29 ppm | reduction in ZIKV infectious virus output (ZIKV PRVABC59): < 2 fold | Virus Production (resistant or susceptible), ZIKV (ZIKV PRVABC59; 293 T, infectivity, PFU): Resistant | DENV replication, tenatoprazole susceptibility (DENV 2 strain 16681): no tenatoprazole susceptibility | Virus Production (resistant or susceptible), DENV (DENV 2 strain 16681; 293 T, infectivity, FFU): Resistant | Selectivity index (CC50/EC50), EBOV (EBOV (Zaire)): Susceptible (1.6) | EC50 (EBOV (Zaire); Zaire ebolavirus, HeLa, 24 h, read-out: EC50, inhibition of EBOV spread): 80 µM | CC50 (in vitro [4]): 129 µM | viability at 80 µM (in vitro [5]): > 80% | prodrug remaining at 17 hours ([2]; 2 mM prazole, 300 K): ~ 5% | metabolic capacity of host CLIX-FZ cells (CLIX-FZ cells): some impairment of metabolic capacity | PV tenatoprazole susceptibility [6]: no tenatoprazole susceptibility | Alix rescue of P7L-Gag release in presence of tenatoprazole ([7]; 293T, concentration range to which the WT is susceptible): 2–3 fold | Alix-mediated stimulation of p25 to p24 maturation ([7]; in the presence or absence of the drug): ~ 3 fold | Virus Production (resistant or susceptible), HIV-1 (HIV-1): sensitive | Selectivity Index (CC50/EC50) (HIV-1; HIV-1, Table 3): 2.5 | EC50 (HIV-1; [9]): 50 µM | EC50 (HIV-1; [10]): ~50 µM | Selectivity index (CC50/EC50), EBV (EBV): ~4 | intracellular EBV load (EBV; [11]): increased | number of released (extracellular) EBV particles (EBV; [11]): dose-dependent reduction | Virus Production (resistant or susceptible), EBV (EBV; qPCR): Susceptible | Virus Production (resistant or susceptible), EBV (EBV; qPCR, listed as tenatoprazole): sensitive | Virus Production (resistant or susceptible), MAYV (MAYV TRVL 15537): sensitive; also recorded: Susceptible (2.5) | reduction of MAYV titer (MAYV TRVL 15537): > 2 log10 | Selectivity index (CC50/EC50), MAYV (MAYV TRVL 15537; 293 T): Susceptible (2.5)

Cc1c(OCC(F)(F)F)ccnc1C[S+]([O-])c1nc2ccccc2[nH]1 (stereo not shown) [Lansoprazole, lansoprazole]
CC50 at 24 h [1]: 50 µM | prodrug remaining at 17 hours ([2]; 2 mM prazole, 300 K): 20% | Selectivity Index (CC50/EC50) (HIV-1; HIV-1, Table 3): 2.0 | EC50 (HIV-1; [9]): 25 µM | EC50 (HIV-1; [10]): ~25 µM

COc1ccc2nc([S@@+]([O-])Cc3ncc(C)c(OC)c3C)[nH]c2c1 [Esomeprazole, Esomeprazole magnesium hydrate]
CC50 at 24 h [1]: 75 µM | inhibitory effect on EBOV (EBOV (Zaire)): no significant inhibitory effect | EC50 [8]: 50 µM | prodrug remaining at 17 hours ([2]; 2 mM prazole, 300 K): ~ 55% | Selectivity Index (CC50/EC50) (HIV-1): 1.0 | EC50 (HIV-1; [9]): 75 µM | EC50 (HIV-1; [10]): ~75 µM
